What is called inhibition is the share of the control response that was lost under treatment.

In patent EP0533926A1, “[…]” (NIPPON SHINYAKU COMPANY, LIMITED, priority 1990, dated 1991) one finds inhibition data, which are given here for two compounds.

For this test, the system named is human platelet aggregation. Kind of test: Inhibitory effect on human platelet aggregation (collagen-induced, PRP, absorbance at 660 nm). Format: cell-based. Particulars: concentration of collagen 2 µg/ml, 37 °C, read-out: percent inhibition of platelet aggregation (%); for inhibition at 10 µM: test drug 10 µM; for inhibition at 100 µM: test drug 100 µM. Here is the method:
Inhibitory effect on human platelet aggregation
Using a syringe filled with 2.5 ml of sodium citrate solution (Citrate for erythrocyte sedimentation test (Kokusai) distributed by Green Cross Corporation) beforehand, human blood was collected in a total quantity of 25 ml and stirred well. The blood was then centrifuged at 200× g for 10 minutes and the supernatant was recovered as a PRP (platelet-rich plasma).
Horse tendon collagen [HORMON-CHEMIE MÜNCHEN GMBH, collagen reagent (Holm)] was previously diluted to 10 and 20 µg /ml with the accompanying buffer.
Each test drug was diluted with PBS and its concentration (mM) was estimated from ultraviolet absorption.
The assay for platelet aggregation was carried out with NKK HEMA TRACER 1 (Nikko Bioscience). The cell was filled with 0.2 ml of PRP and 0.025 ml of the test drug solution and the absorbance was measured at a constant temperature of 37 °C. Then, 0.025 ml of the above collagen solution was added and the absorbance was measured (wavelength 660 nm). The percent inhibition of platelet aggregation (%) was calculated by means of the following equation. [formula] [ ] represents the absorbance.

`Nc1nc2c(nc(Br)n2[C@@H]2O[C@@H]3COP(=O)(O)O[C@H]3[C@H]2O)c(=O)[nH]1` [Example 8-Br-c-GMP, 8-bromocyclic GMP]: the inhibition at 10 µM was found to be 2.9% and the inhibition at 100 µM is 49%.

Turning to `Nc1nc2c(ncn2[C@@H]2O[C@@H]3COP(=O)(O)O[C@H]3[C@H]2O)c(=O)[nH]1` [c-GMP, cyclic GMP], the inhibition at 10 µM turned out to be 4% and the inhibition at 100 µM amounted to 23%.
